Some test systems named below: Staphylococcus aureus; Bacillus subtilis; Escherichia coli B; Pseudomonas aeruginosa; Acinetobacter baumannii; Bordetella pertussis.
What all share (experiment): ≥ marks a high value that may be exact or a test limit, other limits are often not marked, values filed in µg/mL are converted to µM
Assay [1] deals with Candida albicans F7-39/IDE99.
Assay [2] deals with Pseudomonas aeruginosa ATCC 27853.
Assay [3] concerns Staphylococcus aureus NCTC 8325.
Assay [4] concerns Staphylococcus epidermidis RP62A.
Assay [5] relates to Candida albicans ATCC 90028.
The test system of assay [6] is Enterobacter cloacae HNTCC 53001.
The test system of assay [7] is Escherichia coli ATCC 25922.
The subject of assay [8] is Enterococcus faecalis ATCC 29212.
For assay [9], the system named is Proteus mirabilis ATCC 25933.
Assay [10] deals with Klebsiella pneumoniae KK3 9904.
The subject of assay [11] is Staphylococcus aureus ATCC 25923.
In assay [12] the test system is Lactobacillus acidophilus NCTC 1723.
Assay [13] deals with Streptococcus mutans NCTC 10449.
Assay [14] concerns Candida albicans NCTC 3179.
Assay [15] has as its system Enterococcus faecalis NCTC 12697.
Assay [16] has as its system Klebsiella pneumoniae ATCC 700603.
Assay [17] deals with Staphylococcus aureus ATCC 29213.
For assay [18], the system named is Staphylococcus epidermidis RP62A/1.
The test system of assay [19] is Escherichia coli ATCC 25726.
For assay [20], the system named is Stenotrophomonas maltophilia.

Usually MIC stands for the least concentration at which growth counts as inhibited. Read a high MIC as weaker potency.

Values after ≈ are worked out from the molar mass of the structure shown.

Consider `CC(C)C[C@@H]1NC(=O)[C@H](CCCCN)NC(=O)[C@H](CC(C)C)NC(=O)[C@@H]2CCCN2C(=O)CNC(=O)[C@H](CCCCN)NC(=O)[C@@H](NC(=O)[C@H](CCCCN)NC(=O)CNC(=O)[C@H](CCCCN)NC(=O)[C@H](CCCCN)NC(=O)[C@H](CCCCN)NC(=O)[C@H](C)N)CSSC[C@@H](C(N)=O)NC(=O)[C@H](CCCCN)NC(=O)[C@H](C)NC(=O)[C@H](C(C)C)NC1=O` [AKKKGKCKGPLKLVAKC], for which the MIC was at least 100 µM in assay [1]; over 100 µM with Staphylococcus aureus; at least 65 µM against Bacillus subtilis; at least 100 µM with Escherichia coli B; over 100 µM with Pseudomonas aeruginosa.
Regarding `CSCC[C@H](NC(=O)[C@@H](NC(=O)[C@H](CCCCN)NC(=O)[C@H](CO)NC(=O)[C@H](C)NC(=O)[C@H](CC(C)C)NC(=O)[C@H](CO)NC(=O)CNC(=O)[C@@H](NC(=O)[C@@H](NC(=O)[C@H](CC(N)=O)NC(=O)[C@H](CCCCN)NC(=O)[C@H](C)NC(=O)[C@H](C)NC(=O)CNC(=O)[C@H](CCCCN)NC(=O)[C@H](CC(C)C)NC(=O)[C@@H](NC(=O)[C@H](CC(=O)O)NC(=O)[C@H](CC(C)C)NC(=O)[C@H](CC(C)C)NC(=O)CN)[C@@H](C)O)C(C)C)C(C)C)C(C)C)C(=O)N[C@@H](CCC(=O)O)C(=O)N[C@@H](CCCCN)C(=O)N[C@@H](CC(C)C)C(N)=O` [GLLDTLKGAAKNVVGSLASKVMEKL], the MIC in assay [2] is 100 µM (≈ 254 µg/mL); in assay [3], at least 200 µM; in assay [4] it was at least 100 µM; in assay [5] it was at least 200 µM; in assay [6], at least 50 µM; in [7] it was 25 µM (≈ 63.6 µg/mL). Besides, the MIC in assay [8] was 200 µM (≈ 508 µg/mL); in assay [9], at least 200 µM; in assay [10] it was at least 100 µM.
Regarding `CSCC[C@H](NC(=O)[C@H](CC(C)C)NC(=O)CNC(=O)[C@@H](NC(=O)[C@H](Cc1ccccc1)NC(=O)[C@H](CO)NC(=O)[C@H](CC(=O)O)NC(=O)[C@@H](NC(=O)[C@H](CCCCN)NC(=O)[C@@H](N)Cc1cnc[nH]1)[C@@H](C)O)C(C)C)C(N)=O` [HKTDSFVGLM], the MIC in assay [2] was over 441 µM; in assay [11], over 441 µM; in assay [12] it was at least 441 µM; in [13], at least 441 µM; in assay [14] it was at least 441 µM; in [15], at least 441 µM. In assay [7], this molecule had an MIC of over 441 µM.
As to `CC[C@H](C)[C@H](N)C(=O)N[C@@H](CCCCN)C(=O)N[C@@H](CC(C)C)C(=O)N[C@@H](CO)C(=O)N1CCC[C@H]1C(=O)N[C@@H](CCC(=O)O)C(=O)N[C@H](C(=O)N[C@@H](CCCCN)C(=O)N[C@@H](CCCCN)C(=O)N[C@@H](CC(N)=O)C(=O)N[C@@H](CC(C)C)C(=O)N[C@@H](CCCCN)C(=O)N[C@@H](CCCCN)C(=O)N[C@H](C(=O)N[C@@H](CC(C)C)C(=O)N[C@@H](CCCCN)C(=O)NCC(=O)N[C@@H](C)C(=O)N[C@H](C(=O)N[C@@H](CCCCN)C(=O)NCC(=O)N[C@@H](C)C(=O)N[C@H](C(=O)N[C@@H](C)C(=O)N[C@H](C(=O)N[C@@H](C)C(=O)N[C@@H](CCCCN)C(=O)N[C@@H](CCSC)C(=O)N[C@H](C(N)=O)C(C)C)C(C)C)[C@@H](C)CC)[C@@H](C)CC)C(C)C)[C@@H](C)O` [IKLSPETKKNLKKVLKGAIKGAIAVAKMV], the MIC is 25 µM (≈ 76.9 µg/mL) in assay [2]; 3.1 µM (≈ 9.54 µg/mL) in the assay with Acinetobacter baumannii; 3.1 µM (≈ 9.54 µg/mL) in assay [11]; 1.6 µM (≈ 4.92 µg/mL) in [4]; 12.5 µM (≈ 38.5 µg/mL) in assay [16]; 3.1 µM (≈ 9.54 µg/mL) in assay [17]. Also, the MIC is at least 50 µM in [5]; 0.8 µM (≈ 2.46 µg/mL) in assay [18]; 6.25 µM (≈ 19.2 µg/mL) in [19]; 3.1 µM (≈ 9.54 µg/mL) in assay [20]; at least 100 µM in [9].
As to `CC[C@H](C)[C@@H]1NC(=O)[C@H](CCC(N)=O)NC(=O)[C@H](CCCCN)NC(=O)[C@H](CCSC)NC(=O)[C@H](CCCCN)NC(=O)[C@@H]2CCCN2C(=O)[C@H](C)NC(=O)[C@@H]2CSSC[C@@H](C(=O)N[C@@H](CCCCN)C(=O)N[C@@H](CCCN=C(N)N)C(=O)N[C@@H](CCCCN)C(=O)O)NC(=O)[C@@H]3CSSC[C@H](NC(=O)[C@H](CO)NC(=O)[C@@H](NC(=O)[C@H](CO)NC(=O)[C@H](CC(N)=O)NC(=O)CNC(=O)[C@@H](NC(=O)[C@H](CC(N)=O)NC(=O)[C@@H](N)CCCCN)[C@@H](C)CC)C(C)C)C(=O)N[C@@H](CC(C)C)C(=O)N[C@@H](CCCN=C(N)N)C(=O)N[C@@H](CC(N)=O)C(=O)N[C@@H](CCCCN)C(=O)NCC(=O)N[C@@H](C(C)C)C(=O)N[C@@H](CSSC[C@H](NC(=O)[C@H]([C@@H](C)O)NC(=O)CNC1=O)C(=O)NCC(=O)N[C@@H](CCSC)C(=O)N1CCC[C@H]1C(=O)N[C@@H](CCC(N)=O)C(=O)N[C@@H](C(C)C)C(=O)N[C@@H](CCCCN)C(=O)N3)C(=O)N[C@@H](CCSC)C(=O)N1CCC[C@H]1C(=O)NCC(=O)N[C@@H](CCCCN)C(=O)N2` [KNIGNSVSCLRNKGVCMPGKCAPKMKQIGTCGMPQVKCCKRK], the MIC in assay [11] amounted to 17.7 µM (≈ 79.9 µg/mL); against Bordetella pertussis, 1.1 µM (≈ 4.99 µg/mL); in assay [7] it was 22.1 µM (≈ 99.9 µg/mL).

Source of the values: DBAASP.
